# In patent USRE39591E1, “6-O-substituted ketolides having antibacterial activity” (Abbott Laboratories, priority 1996, dated 2007):
# System: up to 32 different microorganisms
# Experiment: in vitro antibacterial activity (MIC), agar dilution on Brain Heart Infusion (BHI) agar with Steers replicator
# Format: cell-based
# Details: unit assumed
# Procedure: Representative compounds of the present invention were assayed in vitro for antibacterial activity as follows: Twelve petri dishes containing successive aqueous dilutions of the test compound mixed with 10 mL of sterilized Brain Heart Infusion (BHI) agar (Difco 0148-01-5) were prepared. Each plate was inoculated with 1:100 (or 1:10 for slow-growing strains, such as Micrococcus and Streptococcus) dilutions of up to 32 different microorganisms, using a Steers replicator block. The inoculated plates were incubated at 35°-37° C. for 20 to 24 hours. In addition, a control plate, using BHI agar containing no test compound, was prepared and incubated at the beginning and end of each test.
# An additional plate containing a compound having known susceptibility patterns for the organisms being tested and belonging to the same antibiotic class as the test compound was also prepared and incubated as a further control, as well as to provide test-to-test comparability. Erythromycin A was used for this purpose.
# After incubation, each plate was visually inspected. The minimum inhibitory concentration (MIC) was defined as the lowest concentration of drug yielding no growth, a slight haze, or sparsely isolated colonies on the inoculum spot as compared to the growth control.
# [1] = Candida albicans CCH 442 (code TT)
# [2] = Enterococcus faecism ATCC 8043 (code II)
# [3] = Escherichia coli DC-2 (code SS)
# [4] = Escherichia coli JUHL (code QQ)
# [5] = Haemophilis influenzae DILL AMP R (code WW)
# [6] = Micrococcus luteus ATCC 4698 (code PP)
# [7] = Micrococcus luteus ATCC 9341 (code OO)
# [8] = Mycobacterium smegmatis ATCC 114 (code UU)
# [9] = Nocardia Asteroides ATCC9970 (code VV)
# [10] = Staphylococcus aureus 1775 (code GG)
# [11] = Staphylococcus aureus A5177 (code BB)
# [12] = Staphylococcus aureus A-5278 (code CC)
# [13] = Staphylococcus aureus ATCC 6538P (code AA)
# [14] = Staphylococcus aureus CMX 553 (code FF)
# [15] = Staphylococcus aureus CMX 642A (code DD)
# [16] = Staphylococcus aureus NCTC10649M (code EE)
# [17] = Staphylococcus epidermidis 3519 (code HH)
# [18] = Streptococcus Pneumonia 5649 (code ZZA)
# [19] = Streptococcus Pneumonia 5979 (code ZZ)
# [20] = Streptococcus Pneumonia ATCC6303 (code XX)
# [21] = Streptococcus Pneumonia GYR 1171 (code YY)
# [22] = Streptococcus agalactiae CMX 508 (code KK)
# [23] = Streptococcus pyogenes 930 (code MM)
# [24] = Streptococcus pyogenes EES61 (code LL)
# [25] = Streptococcus pyogenes PIU 2548 (code NN)
smiles,measurement,setting,value
"CCC1OC(=O)C(C)C(=O)C(C)C(OC2OC(C)CC(N(C)C)C2O)C(C)(OCC=Cc2cnc3ccccc3c2)CC(C)C(=O)C(C)C2N(CC=Cc3cnc4ccccc4c3)C(=O)OC12C (centres unmarked) [Example 184, Compound of Formula (IX): L is CO, T is T is N (CH2CH═CH-(3-quinolyl)), R is —CH2CH═CH-(3-quinolyl)]",MIC,[1],> 100 µg/mL
same,MIC,[2],0.2 µg/mL
same,MIC,[3],> 100 µg/mL
same,MIC,[4],> 100 µg/mL
same,MIC,Escherichia coli SS (code RR),12.5 µg/mL
same,MIC,[5],> 128 µg/mL
same,MIC,[6],0.78 µg/mL
same,MIC,[7],0.39 µg/mL
same,MIC,[8],6.2 µg/mL
same,MIC,[9],3.1 µg/mL
same,MIC,[10],> 100 µg/mL
same,MIC,[11],1.56 µg/mL
same,MIC,[12],> 100 µg/mL
same,MIC,[13],3.1 µg/mL
same,MIC,[14],1.56 µg/mL
same,MIC,[15],3.1 µg/mL
same,MIC,[16],3.1 µg/mL
same,MIC,[17],3.1 µg/mL
same,MIC,[18],2 µg/mL
same,MIC,[19],32 µg/mL
same,MIC,[20],1 µg/mL
same,MIC,[21],0.5 µg/mL
same,MIC,[22],0.1 µg/mL
same,MIC,Streptococcus bovis A-5169 (code JJ),0.1 µg/mL
same,MIC,[23],25 µg/mL
same,MIC,[24],0.1 µg/mL
same,MIC,[25],1.56 µg/mL
"CC[C@H]1OC(=O)[C@H](C)C(=O)[C@H](C)[C@@H](O[C@@H]2O[C@H](C)C[C@H](N(C)C)[C@H]2O)[C@@](C)(OCC(=O)c2ccc(F)cc2)C[C@@H](C)C(=O)[C@H](C)[C@H]2NC(=O)O[C@@]21C [Example 240, Compound of Formula (IX): L is CO, T is NH, R is —CH2C(O)-(4-F-phenyl)]",MIC,organism code AA,3.1 µg/mL
same,MIC,organism code BB,3.1 µg/mL
same,MIC,organism code CC,> 100 µg/mL
same,MIC,organism code DD,6.2 µg/mL
same,MIC,organism code EE,3.1 µg/mL
same,MIC,organism code FF,3.1 µg/mL
same,MIC,organism code GG,> 100 µg/mL
same,MIC,organism code HH,3.1 µg/mL
same,MIC,organism code II,0.78 µg/mL
same,MIC,organism code JJ,0.39 µg/mL
same,MIC,organism code KK,0.39 µg/mL
same,MIC,organism code LL,0.39 µg/mL
same,MIC,organism code MM,> 100 µg/mL
same,MIC,organism code NN,0.78 µg/mL
same,MIC,organism code OO,0.39 µg/mL
same,MIC,organism code PP,1.56 µg/mL
same,MIC,organism code QQ,> 100 µg/mL
same,MIC,organism code RR,3.1 µg/mL
same,MIC,organism code SS,> 100 µg/mL
same,MIC,organism code TT,> 100 µg/mL
same,MIC,organism code UU,6.2 µg/mL
same,MIC,organism code VV,1.56 µg/mL
same,MIC,organism code WW,32 µg/mL
same,MIC,organism code XX,0.25 µg/mL
same,MIC,organism code YY,0.25 µg/mL
same,MIC,organism code ZZ,> 128 µg/mL
same,MIC,organism code ZZA,1 µg/mL
"C=CCO[C@@]1(C)C[C@@H](C)C(=O)[C@H](C)[C@H]2N(N)C(=O)O[C@]2(C)[C@@H](CC)OC(=O)[C@H](C)C(=O)[C@H](C)[C@H]1O[C@@H]1O[C@H](C)C[C@H](N(C)C)[C@H]1O [Example 262, Compound of Formula (IX): L is CO, T is N(NH2), R is —CH CH═CH2]",MIC,organism code AA,0.78 µg/mL
same,MIC,organism code BB,0.78 µg/mL
same,MIC,organism code CC,> 100 µg/mL
same,MIC,organism code DD,0.78 µg/mL
same,MIC,organism code EE,0.78 µg/mL
same,MIC,organism code FF,0.78 µg/mL
same,MIC,organism code GG,> 100 µg/mL
same,MIC,organism code HH,0.78 µg/mL
same,MIC,organism code II,0.39 µg/mL
same,MIC,organism code JJ,≤ 0.005 µg/mL
same,MIC,organism code KK,0.05 µg/mL
same,MIC,organism code LL,0.1 µg/mL
same,MIC,organism code MM,> 100 µg/mL
same,MIC,organism code NN,0.78 µg/mL
same,MIC,organism code OO,0.1 µg/mL
same,MIC,organism code PP,0.39 µg/mL
same,MIC,organism code QQ,> 100 µg/mL
same,MIC,organism code RR,1.56 µg/mL
same,MIC,organism code SS,> 100 µg/mL
same,MIC,organism code TT,> 100 µg/mL
same,MIC,organism code UU,6.2 µg/mL
same,MIC,organism code VV,0.39 µg/mL
same,MIC,organism code WW,16 µg/mL
same,MIC,organism code XX,0.03 µg/mL
same,MIC,organism code YY,0.03 µg/mL
same,MIC,organism code ZZ,> 128 µg/mL
same,MIC,organism code ZZA,0.5 µg/mL
"CCC1OC(=O)C(C)C(=O)C(C)C(OC2OC(C)CC(N(C)C)C2O)C(C)(OCC=Cc2cnc3ccc(Cl)cc3c2)CC(C)C(=O)C(C)C2NC(=O)OC12C (centres unmarked) [Example 191, R is —CH2CH═CH-(6-chloro-3-quinolyl)]",MIC,[1],> 100 µg/mL
same,MIC,[2],0.05 µg/mL
same,MIC,[3],100 µg/mL
same,MIC,[4],50 µg/mL
same,MIC,Escherichia coli SS (code RR),0.2 µg/mL
same,MIC,[5],2 µg/mL
same,MIC,[6],0.1 µg/mL
same,MIC,[7],0.01 µg/mL
same,MIC,[8],0.39 µg/mL
same,MIC,[9],0.02 µg/mL
same,MIC,[10],> 100 µg/mL
same,MIC,[11],0.05 µg/mL
same,MIC,[12],> 100 µg/mL
same,MIC,[13],0.05 µg/mL
same,MIC,[14],0.05 µg/mL
same,MIC,[15],0.05 µg/mL
same,MIC,[16],0.1 µg/mL
same,MIC,[17],0.05 µg/mL
same,MIC,[18],0.25 µg/mL
same,MIC,[19],2 µg/mL
same,MIC,[20],0.03 µg/mL
same,MIC,[21],0.03 µg/mL
same,MIC,[22],0.05 µg/mL
same,MIC,[23],3.1 µg/mL
same,MIC,[24],0.02 µg/mL
same,MIC,[25],0.1 µg/mL
